For this test, the target named is T1, QueF-like (QueF-L) from Pyrobaculum calidifontis (Pyrobaculum calidifontis, UniProt A3MSP1).
T1 construct: codon-optimized synthetic gene in FactorXa/LIC vector (pLBI14), expressed in E. coli BL21(DE3); N-terminal His6 tag cut by Factor Xa; starts at Met1 (primer encodes MLKVSK..., ends ...PPVYI); decamer
T1 sequence (A3MSP1 1-109): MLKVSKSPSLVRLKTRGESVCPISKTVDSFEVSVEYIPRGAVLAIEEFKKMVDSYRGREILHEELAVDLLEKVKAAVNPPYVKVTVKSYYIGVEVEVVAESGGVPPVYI
Put plainly: UV-Vis titration of thioimide absorbance at […] nm. It counts as binding. Conditions: read-out: apparent KD.

Turning to `N#Cc1c[nH]c2nc(N)[nH]c(=O)c12` [preQ0], the Kd came to 8 µM.

The values above are taken from paper PMC5485725, “QueF-Like, a Non-Homologous Archaeosine Synthase from the Crenarchaeota” (Biomolecules, 2017).
